Test: Determination of bio-accumulation: urinary clearance pharmacokinetic study in rats
Details: oral gavage, 73 micro Moles per kg body weight
Description: Determination of Bio-Accumulation
The fluorinated surfactants were evaluated for urinary clearance using a pharmacokinetic study in rats. The goal was to measure the total amount of parent compound eliminated via urinary output and estimate the rate of elimination.
The study utilized male Sprague Dawley rats, 6 to 8 weeks of age, and approximately 200 to 250 g body weight at study onset. The test compounds of table 2 were administered at a dose of 73 micro Moles per kg body weight in rats (N=3 animals per tested compound). All test compounds were prepared in sterile deionized water and given to rats via oral gavage. After test compounds administration, the rats were housed individually in metabolism cages for urine collection: 0 to 6 hours, 6 to 24 hours, 24 to 48 hours and 72 to 96 hours. Animals were observed throughout the study for clinical signs of toxicity. Gross necropsy was performed at the termination of each study (96 hours post-dose) with sera and liver samples being retained from each animal.
The concentration of the parent compound or metabolites thereof were quantitatively measured via fluorine NMR on each urine sample for each animal at each time point based on internally added standards.
T1/2 is the renal half-life and is the time required for the amount of a particular substance in a biological system to be reduced to one half of its value by biological processes when the rate of removal is approximately exponential. In these examples the value of T1/2 is calculated by exponential least squares curve fitting (y=Ae^Bx and T1/2=0.693/B) where y represents the concentration of analyte in urine and x represents time in hours.

Compound | Compound-related Effects (clinical signs of toxicity and gross necropsy at 96 hours post-dose) | % Recovery (96 h) (recovery in urine after 96 h) | T½ (renal elimination half-life) (urine measured by fluorine NMR, exponential least squares curve fitting)
N.O=C(O)C(F)(F)C(F)(F)C(F)(F)C(F)(F)C(F)(F)C(F)(F)C(F)(F)F [APFO, ammonium perfluorooctanoic acid, reference compound] | Hepatomegaly | – | –
N.O=C(O)C(F)OC(F)(F)C(F)(F)C(F)(F)OC(F)(F)F (stereo not drawn) [Compound 3, CF3—O—CF2—CF2—CF2—O—CHF—COONH4] | – | 95% | 11 h

— patent publication US7838608B2, “Fluorinated surfactants for making fluoropolymers” (3M Innovative Properties Company, priority 2005, dated 2010)
